In US20220162191A1, “SMALL MOLECULE MODULATORS OF IL-17” (LEO PHARMA A/S, priority 2019, published 2022):

Target: T1, human IL-17AA (Homo sapiens, UniProt Q16552)
T1 construct: host or cells: HEK (human embryonic kidney) cells
T1 sequence (Q16552 24-155) 1: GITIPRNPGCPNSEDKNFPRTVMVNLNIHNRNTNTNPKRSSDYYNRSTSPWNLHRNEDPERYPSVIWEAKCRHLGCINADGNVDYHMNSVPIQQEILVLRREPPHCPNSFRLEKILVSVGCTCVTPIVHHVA
T1 sequence (Q16552 24-155) 2: T1 sequence (Q16552 24-155) 1
Assay: IL-8 release assay in human epithelial keratinocytes adult (HEKa)
Type: cell-based
Conditions: 3 ng/ml human IL-17AA + 10 ng/ml human TNFalpha, 68-72 h, IL-8 by HTRF, read-out: Rel EC50 L-8 release assay
Method in brief: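 Adult human keratinocytes in Epilife with HKGS minus hydrocortisone, treated with compound then stimulated with final 3 ng/ml HEK-derived human IL-17AA plus 10 ng/ml TNF-alpha for 68–72 h at 37 °C; TNF-alpha alone defines 100% inhibition. Secreted IL-8 by HTRF; relative IC50 and Emax from four-parameter fits.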

EC50 | Structure (SMILES)
0.1 to 1 µM | Cc1nocc1C(=O)NC(Cc1cc(-c2cccc(C(=O)N3CC(F)C3)c2)ccc1Cl)C(=O)Nc1ccc(-c2nncn2C)cc1 (stereo not drawn) [Example 120, N-[1-[[2-chloro-5-[3-(3-fluoroazetidine-1-carbonyl)phenyl]phenyl]methyl]-2-[4-(4-methyl-1,2,4-triazol-3-yl)anilino]-2-oxo-ethyl]-3-methyl-isoxazole-4-carboxamide]
0.1 to 1 µM | CC(C)n1cc(-c2ccc(Cl)c(CC(NC(=O)c3ccnn3C)C(=O)Nc3ccc(-c4c[nH]nc4C(F)(F)F)cc3)c2)ccc1=O (stereo not drawn) [Example 121, N-[1-[[2-chloro-5-(1-isopropyl-6-oxo-3-pyridyl)phenyl]methyl]-2-oxo-2-[4-[3-(trifluoromethyl)-1H-pyrazol-4-yl]anilino]ethyl]-2-methyl-pyrazole-3-carboxamide]
0.1 to 1 µM | CC(C)Oc1cccc(-c2ccc(Cl)c(CC(NC(=O)c3ccnn3C)C(=O)Nc3ccc(-c4nncn4C)cc3)c2)c1 (stereo not drawn) [Example 122, N-[1-[[2-chloro-5-(3-isopropoxyphenyl)phenyl]methyl]-2-[4-(4-methyl-1,2,4-triazol-3-yl)anilino]-2-oxo-ethyl]-2-methyl-pyrazole-3-carboxamide]
< 0.1 µM | Cc1nocc1C(=O)N[C@@H](Cc1cc(-c2ccnc(C(O)C3CC3)c2)ccc1Cl)C(=O)Nc1ccc(-c2cncn2C)cc1 (stereo partly drawn) [Example 123, N-[(1S)-1-[[2-chloro-5-[2-[cyclopropyl(hydroxy)methyl]-4-pyridyl]phenyl]methyl]-2-[4-(3-methylimidazol-4-yl)anilino]-2-oxo-ethyl]-3-methyl-isoxazole-4-carboxamide]
0.1 to 1 µM | Cn1cncc1-c1ccc(NC(=O)[C@H](Cc2cc(-c3ccnc(C(O)C4CC4)c3)ccc2Cl)NC(=O)C2(F)CC2)cc1 (stereo partly drawn) [Example 124, N-[(1S)-1-[[2-chloro-5-[2-[cyclopropyl(hydroxy)methyl]-4-pyridyl]phenyl]methyl]-2-[4-(3-methylimidazol-4-yl)anilino]-2-oxo-ethyl]-1-fluoro-cyclopropanecarboxamide]
0.1 to 1 µM | Cc1nocc1C(=O)N[C@@H](Cc1cc(-c2ccnc(C(O)C3CC3)c2)ccc1Cl)C(=O)Nc1ccc(-n2ccnc2C)cc1 (stereo partly drawn) [Example 125, N-[(1S)-1-[[2-chloro-5-[2-[cyclopropyl(hydroxy)methyl]-4-pyridyl]phenyl]methyl]-2-[4-(2-methylimidazol-1-yl)anilino]-2-oxo-ethyl]-3-methyl-isoxazole-4-carboxamide]
0.1 to 1 µM | Cc1nccn1-c1ccc(NC(=O)[C@H](Cc2cc(-c3ccnc(C(O)C4CC4)c3)ccc2Cl)NC(=O)C2(F)CC2)cc1 (stereo partly drawn) [Example 126, N-[(1S)-1-[[2-chloro-5-[2-[cyclopropyl(hydroxy)methyl]-4-pyridyl]phenyl]methyl]-2-[4-(2-methylimidazol-1-yl)anilino]-2-oxo-ethyl]-1-fluoro-cyclopropanecarboxamide]
> 1 µM | CC(C)n1cc(-c2ccc(Cl)c(C[C@H](NC(=O)CC3CCC3)C(=O)Nc3ccc(-c4nncn4C)cc3)c2)ccc1=O [Example 127, (2S)-3-[2-chloro-5-(1-isopropyl-6-oxo-3-pyridyl)phenyl]-2-[(2-cyclobutylacetyl)amino]-N-[4-(4-methyl-1,2,4-triazol-3-yl)phenyl]propanamide]
0.1 to 1 µM | Cc1nocc1C(=O)N[C@@H](Cc1cc(-c2ccnc(C(C)(C)C)c2)ccc1Cl)C(=O)Nc1ccc(-c2nncn2C)cc1 [Example 128, N-[(1S)-1-[[5-(2-tert-butyl-4-pyridyl)-2-chloro-phenyl]methyl]-2-[4-(4-methyl-1,2,4-triazol-3-yl)anilino]-2-oxo-ethyl]-3-methyl-isoxazole-4-carboxamide]
0.1 to 1 µM | Cc1[nH]ncc1-c1ccc(NC(=O)C(Cc2cc(-c3ccc(=O)n(C(C)C)c3)ccc2Cl)NC(=O)C2(F)CC2)cc1 (stereo not drawn) [Example 129, N-[1-[[2-chloro-5-(1-isopropyl-6-oxo-3-pyridyl)phenyl]methyl]-2-[4-(5-methyl-1H-pyrazol-4-yl)anilino]-2-oxo-ethyl]-1-fluoro-cyclopropanecarboxamide]
0.1 to 1 µM | Cn1cnnc1-c1ccc(NC(=O)C(Cc2cc(-c3ccc(O)c(CN4CCOCC4)c3)ccc2Cl)NC(=O)c2ccnn2C)cc1 (stereo not drawn) [Example 130, N-[1-[[2-chloro-5-[4-hydroxy-3-(morpholinomethyl)phenyl]phenyl]methyl]-2-[4-(4-methyl-1,2,4-triazol-3-yl)anilino]-2-oxo-ethyl]-2-methyl-pyrazole-3-carboxamide]
0.1 to 1 µM | CC(C)n1cc(-c2ccc(Cl)c(C[C@H](NC(=O)OC3CC3)C(=O)Nc3ccc(-c4nncn4C)cc3)c2)ccc1=O [Example 131, cyclopropyl N-[(1S)-1-[[2-chloro-5-(1-isopropyl-6-oxo-3-pyridyl)phenyl]methyl]-2-[4-(4-methyl-1,2,4-triazol-3-yl)anilino]-2-oxo-ethyl]carbamate]
< 0.1 µM | Cc1nocc1C(=O)N[C@@H](Cc1cc(-c2ccc(=O)n(C(C)C)c2)ccc1Cl)C(=O)Nc1ccc(-c2cncn2C)c(O)c1 [Example 132, N-[(1S)-1-[[2-chloro-5-(1-isopropyl-6-oxo-3-pyridyl)phenyl]methyl]-2-[3-hydroxy-4-(3-methylimidazol-4-yl)anilino]-2-oxo-ethyl]-3-methyl-isoxazole-4-carboxamide]
0.1 to 1 µM | CC(C)n1cc(-c2ccc(Cl)c(C[C@H](NC(=O)C3(F)CC3)C(=O)Nc3ccc(-c4cncn4C)c(O)c3)c2)ccc1=O [Example 133, N-[(1S)-1-[[2-chloro-5-(1-isopropyl-6-oxo-3-pyridyl)phenyl]methyl]-2-[3-hydroxy-4-(3-methylimidazol-4-yl)anilino]-2-oxo-ethyl]-1-fluoro-cyclopropanecarboxamide]
0.1 to 1 µM | CC(C)n1cc(-c2ccc(Cl)c(C[C@H](NC(=O)OC(C)(C)C)C(=O)Nc3ccc(-c4cncn4C)c(F)c3)c2)ccc1=O [Example 134, tert-butyl N-[(1S)-1-[[2-chloro-5-(1-isopropyl-6-oxo-3-pyridyl)phenyl]methyl]-2-[3-fluoro-4-(3-methylimidazol-4-yl)anilino]-2-oxo-ethyl]carbamate]
0.1 to 1 µM | CC(C)n1cc(-c2ccc(Cl)c(C[C@H](NC(=O)c3ccnn3C)C(=O)Nc3ccc(-c4cncn4C)c(F)c3)c2)ccc1=O [Example 135, N-[(1S)-1-[[2-chloro-5-(1-isopropyl-6-oxo-3-pyridyl)phenyl]methyl]-2-[3-fluoro-4-(3-methylimidazol-4-yl)anilino]-2-oxo-ethyl]-2-methyl-pyrazole-3-carboxamide]
0.1 to 1 µM | Cc1n[nH]cc1-c1ccc(NC(=O)[C@H](Cc2cc(-c3ccc(=O)n(C(C)C)c3)ccc2Cl)NC(=O)C2(F)CC2)cc1 [Example 136, N-[(1S)-1-[[2-chloro-5-(1-isopropyl-6-oxo-3-pyridyl)phenyl]methyl]-2-[4-(3-methyl-1H-pyrazol-4-yl)anilino]-2-oxo-ethyl]-1-fluoro-cyclopropanecarboxamide]
< 0.1 µM | Cc1n[nH]c(C)c1-c1ccc(NC(=O)[C@H](Cc2cc(-c3ccc(=O)n(C(C)C)c3)ccc2Cl)NC(=O)C2(F)CC2)cc1 [Example 137, N-[(1S)-1-[[2-chloro-5-(1-isopropyl-6-oxo-3-pyridyl)phenyl]methyl]-2-[4-(3,5-dimethyl-1H-pyrazol-4-yl)anilino]-2-oxo-ethyl]-1-fluoro-cyclopropanecarboxamide]
